Measurements from PMC11314561, “Design and Synthesis of Novel Aminoindazole-pyrrolo[2,3-b]pyridine Inhibitors of IKKα That Selectively Perturb Cellular Non-Canonical NF-κB Signalling” (Molecules, 2024).
pIC50: −log10 of the molar value.

Tested on: p52/RelB nuclear translocation in PC-3M cells
Assay: LTα1β2-stimulated p52/RelB nuclear translocation, Western blotting of crude nuclear extracts
Type: cell-based
Conditions: Homo sapiens, LTα1β2 4 h
Method: Associated with the IKKα-mediated activation of the non-canonical NF-κB pathway is the downstream liberation and the nuclear translocation of p52/RelB-containing NF-κB complexes. The extent of the nuclear translocation of these proteins was also assessed by Western blotting of crude nuclear extracts prepared from PC-3M cells. […] Related to the markers of TNFα-stimulated canonical NF-κB signalling, 6g [SU1349] had no impact on any of TNFα-stimulated IκBα degradation, phosphorylation of p65 (Ser536), or p105 (Ser932) phosphorylation in these cells (Figure 15C).
For examination of potential effects of compound on non-canonical NF-κB signalling, cells were exposed to vehicle (DMSO; 0.03–0.05% (v/v)) or increasing concentrations of compounds (0.01–30 µM) for 1 h prior to treatment with FCS (10% (v/v); for U2OS cells) or LTα1β2 (20 ng/mL; for PC-3M cells) for 4 h. The status of p-p100 (Ser 866/870) in whole-cell extracts prepared from 12-well plates was assessed by Western blotting, as described in McKenzie et al.. […] Thereafter, p52 and RelB status in crude nuclear extracts normalised for protein amounts were assessed by Western blotting.
Each figure/panel of Western blotting data represents one of at least three separate experiments. […] Data were normalised to fold expression/inhibition relative to ‘agonist plus vehicle’ treatment and expressed as mean ± s.e.m. […]

- pIC50: 6.82
SMILES: Nc1n[nH]c2ccc(-c3ccnc4[nH]c(-c5ccnc(OCc6ccccc6)c5)cc34)cc12 [Compound 6g [SU1349]]
